# According to patent publication US9809623B2, “α4β7 peptide monomer and dimer antagonists” (Protagonist Therapeutics, Inc., priority 2014, dated 2017):
# Numbered stars: 1 amine (or outer) side, 2 acyl side, 3 side chain; on linkers, the order of the positions; unused ones are H or OH. Bridge positions count the residues as written; N and C are the ends. Square brackets hold non-standard residues; d marks the D form. Peptide text beside a SMILES is read from it. I, II: the chains in the order shown. Phe(4-tBu) = CC(C)(C)c1ccc(C[C@H](N)C(=O)O)cc1; Diglycolyl = O=C(COCC(=O)[*:2])[*:1]; NMeR = CN[C@@H](CCCNC(=N)N)C(=O)O; β3hE = N[C@@H](CCC(=O)O)CC(=O)O; NMeK = CN[C@@H](CCCCN)C(=O)O; Pen = CC(C)(S)[C@H](N)C(=O)O; dNMeK = CN[C@H](CCCCN)C(=O)O
# Tests used:
# [1] = target: T1, α4β7 (Mus musculus, UniProt P26011+Q00651); test: α4β7 Cell Adhesion Assay (Mouse), TK1 cells; type: cell-based; conditions: Table 4-B; read-out: Cell Adhesion α4β7 Mouse IC50
# T1 construct: host or cells: TK1 mouse T cells
# How it was run: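 Mouse TK1 cells in DMEM with 0.1% BSA, 10 mM HEPES pH 7 and 1 mM MnCl2 were allowed to adhere for 30-45 min at 37 °C to plates coated with recombinant human MAdCAM-1 Fc (200 ng/well) in the presence of serially diluted peptides. Adherent cells were quantified by MTT absorbance at 570 nm, with no-cell background subtracted for dose response.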
# [2] = target: α4β7 (Homo sapiens, UniProt P13612+P26010); test: PBMC Memory T Cell Adhesion Assay, adhesion to MAdCAM-1; type: cell-based; conditions: Table 4-B; read-out: Cell Adhesion PBMC IC50
# How it was run: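 Fresh human CD4+/CD45RO+ memory T cells in binding medium with 1 mM MnCl2 were preincubated with compound for 1.5 h at 37° C. on plates coated with Fc-captured MAdCAM-1 (400 ng/well). Adherent cells were read by fluorescence (Ex 485/Em 530). IC50 came from four-parameter nonlinear regression of RFU versus log concentration.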
# [3] = Simulated Gastric Fluid (SGF) Assay; type: in vitro ADME; conditions: pig, simulated gastric fluid (SGF) with porcine pepsin, pH 2; Table 4-C, t1/2
# Experimental: SGF was prepared by adding 20 mg NaCl, 32 mg porcine pepsin (MP Biochemicals, catalog 02102599), and 70 μl HCl to 10 ml water (final pH=2). Aliquots of SGF (0.5 ml each) were pre-warmed at 37° C. For each peptide tested, to start the reaction, 1 μl of peptide stock solution (10 mM in DMSO) was added to 0.5 ml SGF and thoroughly mixed such that the final peptide concentration was 20 μM. The reactions were incubated at 37° C. with gentle shaking. At each time point (0, 15, 30, 60 min), 50 μl aliquots were removed and added to 200 ul acetonitrile containing 0.1% formic acid to quench the reaction. Samples were stored at 4° C. until the end of the experiment and centrifuged at 10,000 rpm for 5 minutes. Aliquots of the supernatant were removed, diluted 1:1 into distilled water containing internal standard, and analyzed by LCMS/MS. Percent remaining at each timepoint was calculated based on the peak area response ratio of test compound to internal standard. Time 0 was set to 100%, and all later timepoints were calculated relative to time 0. Half-lives were calculated by fitting to a first-order exponential decay equation using GraphPad.
# [4] = Plasma Stability Assay; type: in vitro ADME; conditions: rat, Table 4-C, t1/2
# Experimental: 0.5 mL of rat plasma (one tube per peptide, volume depends on how many time points are to be collected, 50 μL per time point) was added to each well of a 96-well polypropylene plate, and the tubes were incubated in a heated water bath, preset to 37° C. with gentle shaking. 1 μL of 10 mM peptide stock solution was added to each tub, and then 200 μL of Acetonitrile w/0.1% Formic Acid was added to each tube (1:4). Samples were collected at the following time points: 0, 10, 30, 45, 60, 120, 180 mins. When all time points were collected, the plate was centrifuged at 5000 rpm for 5 mins. LCM analysis was performed by pipetting 100 μL of each sample to appropriate well of a 96-well deep plate. 100 μL of an internal standard peptide (1 ug/mL) was added in Mobile Phase A to each well. The plate was vortexed and injected
# T1 sequence (Q00651 34-1039 limits assumed): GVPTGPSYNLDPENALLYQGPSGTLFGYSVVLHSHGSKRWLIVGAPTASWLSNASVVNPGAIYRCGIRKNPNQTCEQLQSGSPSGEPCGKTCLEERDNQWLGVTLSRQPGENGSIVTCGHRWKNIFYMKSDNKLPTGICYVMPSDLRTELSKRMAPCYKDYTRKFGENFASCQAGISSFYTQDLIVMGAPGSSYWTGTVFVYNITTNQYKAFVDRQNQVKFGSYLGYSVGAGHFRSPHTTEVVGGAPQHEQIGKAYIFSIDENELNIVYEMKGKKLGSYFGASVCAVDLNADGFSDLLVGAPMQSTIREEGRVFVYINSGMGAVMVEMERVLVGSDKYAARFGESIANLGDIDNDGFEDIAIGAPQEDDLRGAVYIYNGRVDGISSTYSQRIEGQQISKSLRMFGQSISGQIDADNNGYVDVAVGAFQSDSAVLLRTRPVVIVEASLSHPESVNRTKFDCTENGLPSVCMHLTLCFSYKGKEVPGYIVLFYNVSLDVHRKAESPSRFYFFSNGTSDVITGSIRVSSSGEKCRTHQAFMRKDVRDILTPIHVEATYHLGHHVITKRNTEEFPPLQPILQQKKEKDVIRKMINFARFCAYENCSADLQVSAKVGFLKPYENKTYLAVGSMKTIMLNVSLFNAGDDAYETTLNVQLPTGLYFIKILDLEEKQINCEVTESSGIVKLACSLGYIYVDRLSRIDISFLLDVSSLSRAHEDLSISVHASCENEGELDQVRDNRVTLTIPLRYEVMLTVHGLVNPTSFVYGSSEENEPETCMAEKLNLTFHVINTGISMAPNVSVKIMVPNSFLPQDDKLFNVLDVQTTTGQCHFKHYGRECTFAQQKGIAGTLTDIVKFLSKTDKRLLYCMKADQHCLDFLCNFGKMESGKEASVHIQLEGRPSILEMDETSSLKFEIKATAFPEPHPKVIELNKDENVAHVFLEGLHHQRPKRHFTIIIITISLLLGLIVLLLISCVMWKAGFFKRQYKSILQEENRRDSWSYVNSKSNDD
# T1 sequence (P26011 20-806): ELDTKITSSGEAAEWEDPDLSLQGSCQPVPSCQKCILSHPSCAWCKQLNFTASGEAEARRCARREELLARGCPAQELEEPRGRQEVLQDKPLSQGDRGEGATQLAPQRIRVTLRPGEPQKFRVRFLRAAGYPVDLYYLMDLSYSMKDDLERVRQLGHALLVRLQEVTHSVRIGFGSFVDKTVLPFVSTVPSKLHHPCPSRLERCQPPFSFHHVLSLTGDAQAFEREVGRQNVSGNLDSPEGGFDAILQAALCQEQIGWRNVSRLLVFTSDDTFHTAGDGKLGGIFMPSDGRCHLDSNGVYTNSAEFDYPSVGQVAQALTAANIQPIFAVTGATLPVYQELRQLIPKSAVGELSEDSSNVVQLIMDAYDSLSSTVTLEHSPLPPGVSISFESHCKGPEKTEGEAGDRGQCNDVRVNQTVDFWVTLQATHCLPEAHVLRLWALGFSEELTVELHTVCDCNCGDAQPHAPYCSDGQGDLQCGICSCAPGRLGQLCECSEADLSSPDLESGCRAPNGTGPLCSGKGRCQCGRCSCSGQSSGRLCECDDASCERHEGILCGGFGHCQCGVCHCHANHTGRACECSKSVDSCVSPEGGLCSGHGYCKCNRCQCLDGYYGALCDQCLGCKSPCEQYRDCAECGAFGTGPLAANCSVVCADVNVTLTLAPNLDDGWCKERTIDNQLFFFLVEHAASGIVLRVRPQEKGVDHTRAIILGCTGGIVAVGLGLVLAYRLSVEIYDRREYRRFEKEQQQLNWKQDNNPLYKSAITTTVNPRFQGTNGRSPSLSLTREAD
# α4β7 (Homo sapiens, UniProt P13612+P26010), sequence (P13612 34-1032): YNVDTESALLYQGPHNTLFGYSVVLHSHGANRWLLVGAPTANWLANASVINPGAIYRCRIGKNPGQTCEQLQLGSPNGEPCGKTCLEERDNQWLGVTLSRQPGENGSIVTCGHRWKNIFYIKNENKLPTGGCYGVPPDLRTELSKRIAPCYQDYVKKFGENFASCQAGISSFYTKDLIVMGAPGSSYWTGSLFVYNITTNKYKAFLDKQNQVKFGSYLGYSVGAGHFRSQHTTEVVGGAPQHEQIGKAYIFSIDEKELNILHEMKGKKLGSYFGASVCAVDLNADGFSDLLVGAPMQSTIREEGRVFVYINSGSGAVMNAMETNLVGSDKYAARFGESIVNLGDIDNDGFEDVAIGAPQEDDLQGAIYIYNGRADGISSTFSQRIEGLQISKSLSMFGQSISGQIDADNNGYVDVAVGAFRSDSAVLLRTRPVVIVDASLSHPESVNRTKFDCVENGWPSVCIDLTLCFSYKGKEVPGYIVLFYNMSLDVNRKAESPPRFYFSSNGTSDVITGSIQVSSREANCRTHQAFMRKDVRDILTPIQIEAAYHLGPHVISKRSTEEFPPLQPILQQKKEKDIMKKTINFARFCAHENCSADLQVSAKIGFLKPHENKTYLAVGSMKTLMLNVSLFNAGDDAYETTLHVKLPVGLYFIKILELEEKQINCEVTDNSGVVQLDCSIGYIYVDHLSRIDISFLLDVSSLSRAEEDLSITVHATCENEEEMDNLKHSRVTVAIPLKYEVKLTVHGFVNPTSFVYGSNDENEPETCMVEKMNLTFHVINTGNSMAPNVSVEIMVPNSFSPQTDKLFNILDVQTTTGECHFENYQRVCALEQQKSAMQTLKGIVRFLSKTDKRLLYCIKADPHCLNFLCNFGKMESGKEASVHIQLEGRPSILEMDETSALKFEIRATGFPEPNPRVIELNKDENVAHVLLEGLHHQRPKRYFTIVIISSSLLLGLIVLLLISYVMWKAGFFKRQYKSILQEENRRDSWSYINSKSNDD
# α4β7 (Homo sapiens, UniProt P13612+P26010), sequence (P26010 20-798): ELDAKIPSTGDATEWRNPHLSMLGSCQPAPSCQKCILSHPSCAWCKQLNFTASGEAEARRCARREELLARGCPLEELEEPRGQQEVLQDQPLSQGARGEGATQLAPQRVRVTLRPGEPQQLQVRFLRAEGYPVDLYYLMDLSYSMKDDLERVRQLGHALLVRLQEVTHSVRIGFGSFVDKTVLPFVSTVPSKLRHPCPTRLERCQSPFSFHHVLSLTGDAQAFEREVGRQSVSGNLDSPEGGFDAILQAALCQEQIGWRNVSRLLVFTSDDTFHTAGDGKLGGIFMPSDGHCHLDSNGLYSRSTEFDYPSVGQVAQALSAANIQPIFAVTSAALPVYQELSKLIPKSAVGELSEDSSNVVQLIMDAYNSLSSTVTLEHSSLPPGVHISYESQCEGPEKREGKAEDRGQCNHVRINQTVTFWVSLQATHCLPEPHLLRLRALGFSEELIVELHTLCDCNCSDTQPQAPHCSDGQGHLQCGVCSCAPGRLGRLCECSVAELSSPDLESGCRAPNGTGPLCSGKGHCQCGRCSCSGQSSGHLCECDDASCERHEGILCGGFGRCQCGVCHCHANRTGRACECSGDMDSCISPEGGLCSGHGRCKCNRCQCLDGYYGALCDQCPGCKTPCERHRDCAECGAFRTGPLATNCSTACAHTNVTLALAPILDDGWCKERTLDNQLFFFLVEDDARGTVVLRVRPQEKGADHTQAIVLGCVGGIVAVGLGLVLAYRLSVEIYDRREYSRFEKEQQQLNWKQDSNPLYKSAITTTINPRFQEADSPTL
Structure (SMILES),IC50 [1] [nM],IC50 [2] [nM],half-life at 20 μM [3] [h],half-life at 20 μM [4] [h]
"CC(=O)N[C@@H]1C(=O)N(C)[C@@H](CCCNC(=N)N)C(=O)N[C@@H](CO)C(=O)N[C@@H](CC(=O)O)C(=O)N[C@@H]([C@@H](C)O)C(=O)N[C@@H](CC(C)C)C(=O)N[C@H](C(=O)N[C@@H](Cc2c[nH]c3ccccc23)C(=O)N[C@@H](CCC(=O)O)C(=O)N(C)[C@@H](CCCCNC(=O)COCC(=O)NCCCC[C@@H](C(N)=O)N(C)C(=O)[C@H](CCC(=O)O)NC(=O)[C@H](Cc2c[nH]c3ccccc23)NC(=O)[C@H]2NC(=O)[C@H](CC(C)C)NC(=O)[C@H]([C@@H](C)O)NC(=O)[C@H](CC(=O)O)NC(=O)[C@H](CO)NC(=O)[C@H](CCCNC(=N)N)N(C)C(=O)[C@@H](NC(C)=O)C(C)(C)SSC2(C)C)C(N)=O)C(C)(C)SSC1(C)C [compound 215, [Ac-Pen-(N-Me-Arg)-Ser-Asp-Thr-Leu-Pen-Trp-Glu-(N-Me-Lys)-NH2]2-DIG] (I: Ac-[Pen][NMeR]SDTL[Pen]WE[NMeK]-NH2 / II: Ac-[Pen][NMeR]SDTL[Pen]WE[NMeK]-NH2; disulfide I:1-I:7, II:1-II:7 (inferred); linker I:10-II:10 via Diglycolyl (inferred))",0.9,16.5,> 6,> 6
"CC(=O)N[C@@H]1C(=O)N(C)[C@@H](CCCNC(=N)N)C(=O)N[C@@H](CO)C(=O)N[C@@H](CC(=O)O)C(=O)N[C@@H]([C@@H](C)O)C(=O)N[C@@H](CC(C)C)C(=O)N[C@H](C(=O)N[C@@H](Cc2ccc(C(C)(C)C)cc2)C(=O)N[C@@H](CCC(=O)O)CC(=O)N[C@H](CCCCNC(=O)COCC(=O)NCCCC[C@@H](NC(=O)C[C@H](CCC(=O)O)NC(=O)[C@H](Cc2ccc(C(C)(C)C)cc2)NC(=O)[C@H]2NC(=O)[C@H](CC(C)C)NC(=O)[C@H]([C@@H](C)O)NC(=O)[C@H](CC(=O)O)NC(=O)[C@H](CO)NC(=O)[C@H](CCCNC(=N)N)N(C)C(=O)[C@@H](NC(C)=O)C(C)(C)SSC2(C)C)C(N)=O)C(N)=O)C(C)(C)SSC1(C)C [compound 218, [Ac-Pen-(N-Me-Arg)-Ser-Asp-Thr-Leu-Pen-Phe(4-tBu)-(β-homoGlu)-(D-Lys)-NH2]2-DIG] (I: Ac-[Pen][NMeR]SDTL[Pen][Phe(4-tBu)][β3hE][dK]-NH2 / II: Ac-[Pen][NMeR]SDTL[Pen][Phe(4-tBu)][β3hE][dK]-NH2; disulfide I:1-I:7, II:1-II:7; linker I:10-II:10 via Diglycolyl)",0.5,2,> 6,> 6
"CC(=O)N[C@@H]1C(=O)N(C)[C@@H](CCCNC(=N)N)C(=O)N[C@@H](CO)C(=O)N[C@@H](CC(=O)O)C(=O)N[C@@H]([C@@H](C)O)C(=O)N[C@@H](CC(C)C)C(=O)N[C@H](C(=O)N[C@@H](Cc2c[nH]c3ccccc23)C(=O)N[C@@H](CCC(=O)O)C(=O)N(C)[C@H](CCCCNC(=O)COCC(=O)NCCCC[C@H](C(N)=O)N(C)C(=O)[C@H](CCC(=O)O)NC(=O)[C@H](Cc2c[nH]c3ccccc23)NC(=O)[C@H]2NC(=O)[C@H](CC(C)C)NC(=O)[C@H]([C@@H](C)O)NC(=O)[C@H](CC(=O)O)NC(=O)[C@H](CO)NC(=O)[C@H](CCCNC(=N)N)N(C)C(=O)[C@@H](NC(C)=O)C(C)(C)SSC2(C)C)C(N)=O)C(C)(C)SSC1(C)C [compound 214, [Ac-Pen-(N-Me-Arg)-Ser-Asp-Thr-Leu-Pen-Trp-Glu-(N-Me-D-Lys)-NH2]2-DIG] (I: Ac-[Pen][NMeR]SDTL[Pen]WE[dNMeK]-NH2 / II: Ac-[Pen][NMeR]SDTL[Pen]WE[dNMeK]-NH2; disulfide I:1-I:7, II:1-II:7 (inferred); linker I:10-II:10 via Diglycolyl (inferred))",1.1,24.5,> 6,> 6
"CC(=O)N[C@@H]1C(=O)N(C)[C@@H](CCCNC(=N)N)C(=O)N[C@@H](CO)C(=O)N[C@@H](CC(=O)O)C(=O)N[C@@H]([C@@H](C)O)C(=O)N[C@@H](CC(C)C)C(=O)N[C@H](C(=O)N[C@@H](Cc2c[nH]c3ccccc23)C(=O)N[C@H](CCC(=O)O)C(=O)N[C@H](CCCCNC(=O)COCC(=O)NCCCC[C@@H](NC(=O)[C@@H](CCC(=O)O)NC(=O)[C@H](Cc2c[nH]c3ccccc23)NC(=O)[C@H]2NC(=O)[C@H](CC(C)C)NC(=O)[C@H]([C@@H](C)O)NC(=O)[C@H](CC(=O)O)NC(=O)[C@H](CO)NC(=O)[C@H](CCCNC(=N)N)N(C)C(=O)[C@@H](NC(C)=O)C(C)(C)SSC2(C)C)C(=O)O)C(=O)O)C(C)(C)SSC1(C)C [compound 216, (Ac-Pen-N-Me-R-S-D-T-L-Pen-W-e-k-OH)2-DIG] (I: Ac-[Pen][NMeR]SDTL[Pen]W[dE][dK]-OH / II: Ac-[Pen][NMeR]SDTL[Pen]W[dE][dK]-OH; disulfide I:1-I:7, II:1-II:7 (inferred); linker I:10-II:10 via Diglycolyl (inferred))",1,14.5,> 6,> 3
"CC(=O)N[C@@H]1C(=O)N(C)[C@@H](CCCNC(=N)N)C(=O)N[C@@H](CO)C(=O)N[C@@H](CC(=O)O)C(=O)N[C@@H]([C@@H](C)O)C(=O)N[C@@H](CC(C)C)C(=O)N[C@H](C(=O)N[C@@H](Cc2c[nH]c3ccccc23)C(=O)N[C@H](CCCCNC(=O)COCC(=O)NCCCC[C@@H](NC(=O)[C@H](Cc2c[nH]c3ccccc23)NC(=O)[C@H]2NC(=O)[C@H](CC(C)C)NC(=O)[C@H]([C@@H](C)O)NC(=O)[C@H](CC(=O)O)NC(=O)[C@H](CO)NC(=O)[C@H](CCCNC(=N)N)N(C)C(=O)[C@@H](NC(C)=O)C(C)(C)SSC2(C)C)C(N)=O)C(N)=O)C(C)(C)SSC1(C)C [compound 209, (Ac-Pen-N-Me-R-S-D-T-L-Pen-W-k-NH2)2-DIG] (I: Ac-[Pen][NMeR]SDTL[Pen]W[dK]-NH2 / II: Ac-[Pen][NMeR]SDTL[Pen]W[dK]-NH2; disulfide I:1-I:7, II:1-II:7 (inferred); linker I:9-II:9 via Diglycolyl (inferred))",51,260,> 3,> 3
"CC(=O)N[C@@H]1C(=O)N(C)[C@@H](CCCNC(=N)N)C(=O)N[C@@H](CO)C(=O)N[C@@H](CC(=O)O)C(=O)N[C@@H]([C@@H](C)O)C(=O)N[C@@H](CC(C)C)C(=O)N[C@H](C(=O)N[C@@H](Cc2c[nH]c3ccccc23)C(=O)N[C@@H](CCC(=O)O)C(=O)N[C@H](CCCCNC(=O)COCC(=O)NCCCC[C@@H](NC(=O)[C@H](CCC(=O)O)NC(=O)[C@H](Cc2c[nH]c3ccccc23)NC(=O)[C@H]2NC(=O)[C@H](CC(C)C)NC(=O)[C@H]([C@@H](C)O)NC(=O)[C@H](CC(=O)O)NC(=O)[C@H](CO)NC(=O)[C@H](CCCNC(=N)N)N(C)C(=O)[C@@H](NC(C)=O)C(C)(C)SSC2(C)C)C(N)=O)C(N)=O)C(C)(C)SSC1(C)C [compound 217, (Ac-Pen-N-Me-R-S-D-T-L-Pen-W-E-k-NH2)2-DIG] (I: Ac-[Pen][NMeR]SDTL[Pen]WE[dK]-NH2 / II: Ac-[Pen][NMeR]SDTL[Pen]WE[dK]-NH2; disulfide I:1-I:7, II:1-II:7 (inferred); linker I:10-II:10 via Diglycolyl (inferred))",1.2,,> 6,> 2
"CC(=O)N[C@H]1CSSC(C)(C)[C@@H](C(=O)N[C@@H](Cc2c[nH]c3ccccc23)C(=O)N[C@H](CCCCNC(=O)COCC(=O)NCCCC[C@@H](NC(=O)[C@H](Cc2c[nH]c3ccccc23)NC(=O)[C@H]2NC(=O)[C@H](CC(C)C)NC(=O)[C@H]([C@@H](C)O)NC(=O)[C@H](CC(=O)O)NC(=O)[C@H](CO)NC(=O)[C@H](CCCNC(=N)N)N(C)C(=O)[C@@H](NC(C)=O)CSSC2(C)C)C(N)=O)C(N)=O)NC(=O)[C@H](CC(C)C)NC(=O)[C@H]([C@@H](C)O)NC(=O)[C@H](CC(=O)O)NC(=O)[C@H](CO)NC(=O)[C@H](CCCNC(=N)N)N(C)C1=O [compound 204, (Ac-C-N-Me-R-S-D-T-L-Pen-W-k-NH2)2-DIG] (I: Ac-C[NMeR]SDTL[Pen]W[dK]-NH2 / II: Ac-C[NMeR]SDTL[Pen]W[dK]-NH2; disulfide I:1-I:7, II:1-II:7 (inferred); linker I:9-II:9 via Diglycolyl (inferred))",,1280,> 6,> 6
